Data: patent US8512971B2, “Compounds and methods of use thereof for assaying lysophospholipase D activity” (Echelon Biosciences, Inc., priority 2002, dated 2013)

Key:
[1] = molecular target: T1, purified lysoPLD from human serum (Homo sapiens, UniProt Q13822); settings: cited from earlier work
T1 construct: The purified lysoPLD from human serum; host or cells: human serum (purified; values quoted from Tokumura et al., J. Biol. Chem. 277:39436-42, 2002)

lysoPLD = lysoPLD (Bos taurus, UniProt A1A4K5); settings: 25° C.
Procedure: FIG. 9 illustrates the evaluation of the fluorogenic substrate FS-1 using fetal bovine serum which is known to be a rich source of LPA that is “self-regenerating” through the in situ activity of lysoPLD. (Umezu-Goto, et al., Journal of Cell Biology, 158:227-33. (2002)) A 10 mM stock solution of FS-1 in MeOH was added to 50 μL solutions of 1% or 10% FBS in PBS and incubated at 25° C. overnight. Measurements were taken on a Hewlett Packard Fusion instrument at 1, 3, 5, and 18 hours.

Molecule	Km [1] [µM]	Vmax [1] [nmol/min]	fluorescence change on cleavage of the quenched substrate (lysoPLD; 1% or 10% FBS in PBS, read at 1, 3, 5 and 18 hours, unoptimized assay)	substrate concentration of optimal conversion (lysoPLD; FBS in PBS) [µM]
CCCCCCCCCCCCCCCC(=O)OC[C@@H](O)COP(=O)([O-])OCC[N+](C)(C)C [16:0 LPC]	260	103		
DABCYL-aminoethyl (N-BODIPY-FL®-aminocaproyl)-2-tert-buiylglycerylphosphate [FS-1]			increase in fluorescence with time	100
